Data taken from publication PMC6277434, “Discovery of a potent HMG-CoA reductase degrader that eliminates statin-induced reductase accumulation and lowers cholesterol” (Nature Communications, 2018).

Tests used:
LXR signaling pathway = test: RT-qPCR of LXR target genes (SREBP-1c, ABCA1, ABCG8) in Huh-7 cells; assay type: cell-based, human; details: 16 h
Protocol: Cells were treated as described in corresponding figure legends, then total RNA was extracted from cells or mouse livers using TRI Reagent (T9424, Sigma-Aldrich). Equal amounts of RNA from cells or mice receiving the same treatment were pooled were used for cDNA synthesis with oligo dT and reverse transcriptase MLV (Promega). Gene expression was analyzed by quantitative real-time PCR on a Stratagene Mx30005PTM Q-PCR Systems. The primers used were listed in Supplementary Tables 2–4. […]
pathway. a-c Huh-7 cells were treated with indicated compounds for 16 h and then harvested for total RNA isolation and RT-qPCR. Cells treated with LXR agonist T0901317 w ere used as positive controls. The relative mRNA levels of SREBP -1c (a), ABCA1 (b) and ABCG8 (c) were quantified . GAPDH was the reference gene. The relative mRNA level in DMSO-treated cells was defined as 1. Data are from 3 independent experiments and presented as mean ± SD.
(1 picture or pasted object on this page, not shown here)

Hmgcr mRNA = test: RT-qPCR of Hmgcr mRNA in SRD-13A cells; assay type: cell-based, Chinese hamster; set-up: HMGCR mRNA level, mean: scale not given here; details: for HMGCR mRNA level, mean: SRD-13A, 16 h
Protocol: Cells were treated as described in corresponding figure legends, then total RNA was extracted from cells or mouse livers using TRI Reagent (T9424, Sigma-Aldrich). Equal amounts of RNA from cells or mice receiving the same treatment were pooled were used for cDNA synthesis with oligo dT and reverse transcriptase MLV (Promega). Gene expression was analyzed by quantitative real-time PCR on a Stratagene Mx30005PTM Q-PCR Systems. The primers used were listed in Supplementary Tables 2–4.

K89R/K248R HMGCR = target: T1, K89R/K248R HMGCR (Cricetulus griseus, UniProt P00347, K248R/K89R); test: Immunoblotting of overexpressed K89R/K248R HMGCR in Huh7 cells; assay type: cell-based; set-up: expressed in transfected cells; host or cells: Huh7 (A8); details: lovastatin
T1 sequence (P00347 1-887 K89R/K248R): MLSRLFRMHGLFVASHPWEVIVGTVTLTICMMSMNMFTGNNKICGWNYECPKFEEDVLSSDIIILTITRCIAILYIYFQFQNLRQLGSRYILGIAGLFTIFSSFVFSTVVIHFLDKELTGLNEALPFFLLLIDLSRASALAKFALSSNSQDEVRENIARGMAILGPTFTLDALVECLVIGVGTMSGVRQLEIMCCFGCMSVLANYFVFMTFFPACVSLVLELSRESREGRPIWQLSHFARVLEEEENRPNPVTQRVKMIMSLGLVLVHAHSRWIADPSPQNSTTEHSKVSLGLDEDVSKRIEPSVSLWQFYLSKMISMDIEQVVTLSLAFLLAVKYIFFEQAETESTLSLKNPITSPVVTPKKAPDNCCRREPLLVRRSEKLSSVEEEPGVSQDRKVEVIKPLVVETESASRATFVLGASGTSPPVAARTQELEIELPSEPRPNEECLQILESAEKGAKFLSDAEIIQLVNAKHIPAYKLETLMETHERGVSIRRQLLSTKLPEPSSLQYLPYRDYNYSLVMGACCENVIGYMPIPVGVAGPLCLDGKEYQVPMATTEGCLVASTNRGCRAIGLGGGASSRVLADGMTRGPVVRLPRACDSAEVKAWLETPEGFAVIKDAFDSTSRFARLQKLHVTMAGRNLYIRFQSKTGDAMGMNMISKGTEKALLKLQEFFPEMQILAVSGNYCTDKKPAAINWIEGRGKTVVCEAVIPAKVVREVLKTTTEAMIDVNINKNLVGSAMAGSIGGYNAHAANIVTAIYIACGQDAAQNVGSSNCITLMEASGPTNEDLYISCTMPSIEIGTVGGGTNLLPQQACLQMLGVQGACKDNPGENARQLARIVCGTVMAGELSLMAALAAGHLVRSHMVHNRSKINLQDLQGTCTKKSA
Protocol: Cells were harvested and homogenized in the RIPA buffer (50 mM Tris-HCl, pH 8.0, 150 mM NaCl, 2 mM MgCl2, 1.5% NP-40, 0.1% SDS, and 0.5% sodium deoxycholate) supplemented with protease cocktail inhibitor, 10 μM MG-132, 10 μg ml^−1 leupeptin and 1 mM phenylmethylsulfonyl fluoride. The protein concentrations of lysates were determined using BCA method (Beyotime). Samples were mixed with the membrane protein solubilization buffer (62.5 mM Tris-HCl, pH 6.8, 15% SDS, 8 M urea, 10% glycerol, and 100 mM DTT) plus the 4× loading buffer (150 mM Tris-HCl, pH 6.8, 12% SDS, 30% glycerol, 6% 2-mercaptoethanol, and 0.02% bromophenol blue) and incubated for 30 min at 37 °C. Proteins were resolved by SDS-PAGE and transferred to nitrocellulose membranes (GE Healthcare). Immnoblots were blocked with 5% non-fat milk in TBS containing 0.075% Tween-20 (TBST) and probed with indicated antibodies overnight at 4 °C. After washing in TBST for five times, blots were incubated with HRP-conjugated secondary antibodies for 2 h at room temperature. Immunoreactivity was developed with Clarity Western ECL chemiluminescent substrates (170–5061, Bio-Rad). Western blot images were captured by Amersham Imager 600 (GE Healthcare), and integrated optical intensities of each band were quantified by Image-Pro Plus 6 software (Media Cybernetics). […]
RT-qPCR. Quantifications of the relative mRNA levels of indicated SREBP target […]

SMILES	expression of LXR target genes (SREBP-1c, ABCA1 and ABCG8) mRNA (LXR signaling pathway)	change in the amounts of Hmgcr mRNA (Hmgcr mRNA; SRD-13A cells, lovastatin 16 h)	HMGCR mRNA level, mean (Hmgcr mRNA; lovastatin 0.001 uM)	HMGCR mRNA level, mean (Hmgcr mRNA; lovastatin 0.003 uM)	HMGCR mRNA level, mean (Hmgcr mRNA; lovastatin 0.01 uM)	HMGCR mRNA level, mean (Hmgcr mRNA; lovastatin 0.03 uM)	HMGCR mRNA level, mean (Hmgcr mRNA; lovastatin 0.1 uM)	HMGCR mRNA level, mean (Hmgcr mRNA; lovastatin 0.3 uM)	HMGCR mRNA level, mean (Hmgcr mRNA; lovastatin 1 uM)	HMGCR mRNA level, mean (Hmgcr mRNA; lovastatin 3 uM)	HMGCR mRNA level, mean (Hmgcr mRNA; lovastatin 10 uM)	effect on ubiquitination-resistant K89R/K248R HMGCR protein level (K89R/K248R HMGCR)
C=CCC(O)(CC=C)CCCC(C)C1CCC2C3C(O)C=C4C(C)(C)C(O)CCC4(C)C3CCC12C (stereo not drawn) [Cmpd 81]	did not induce the expression	–	–	–	–	–	–	–	–	–	–	–
CC[C@H](C)C(=O)O[C@H]1C[C@@H](C)C=C2C=C[C@H](C)[C@H](CC[C@@H]3C[C@@H](O)CC(=O)O3)[C@H]21 [Lovastatin, lovastatin]	–	no change	1	1.03	1.0471	1.185	1.052	0.9958	1.197	1.009	1.04	did not induce the protein level further increase
